SMILES strings stand for the structures. Counter-ions that a name gives are not always drawn.

The target in this experiment is T1, human 5-HT4(a) (Homo sapiens, UniProt Q13639).
T1 construct: host or cells: GeneBlAzer HTR4-CRE-bla CHO-K1 cells
T1 sequence (Q13639 1-387 isoform Q13639-2): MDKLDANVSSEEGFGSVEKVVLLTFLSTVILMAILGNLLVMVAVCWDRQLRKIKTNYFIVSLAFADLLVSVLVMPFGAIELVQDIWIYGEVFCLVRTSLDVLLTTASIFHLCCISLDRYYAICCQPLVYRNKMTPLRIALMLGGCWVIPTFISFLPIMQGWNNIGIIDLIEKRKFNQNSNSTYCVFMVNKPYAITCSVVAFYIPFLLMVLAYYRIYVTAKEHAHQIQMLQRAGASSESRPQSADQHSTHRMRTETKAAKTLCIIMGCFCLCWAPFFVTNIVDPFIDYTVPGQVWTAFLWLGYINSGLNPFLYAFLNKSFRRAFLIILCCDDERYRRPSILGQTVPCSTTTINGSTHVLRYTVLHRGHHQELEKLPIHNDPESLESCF
As to the kind of experiment: Evaluation of agonistic activity in CHO-K1 cells expressing human 5-HT4(a) (GeneBlAzer HTR4-CRE-bla CHO-K1, beta-lactamase reporter). It counts as cell-based. As to conditions: CHO-K1 cells stably expressing human 5-HT4(a). As for the experimental part:
Test Example 1: Evaluation of Agonistic Activity in CHO-K1 Cells Expressing Human 5-HT4(a)
As CHO-K1 cells stably expressing human 5-HT4(a), we used the GeneBlAzer HTR4-CRE-bla CHO-K1 cells (Invitrogen Corp.). The cells were cultured, under the condition of 37[…] and 5% CO2, in a DMEM supplemented with 10% fetal bovine serum (FBS), 25 mM HEPES (pH7.4), 600 μg/ml hygromycin B, 0.1 mM non-essential amino acids, 100 unit/ml penicillin and 100 μg/ml streptomycin. Subcultures were performed three times per one week, each being at less than 80% confluence. At the previous day before treating test compounds, the cells were collected using 0.5% trypsin/EDTA and then diluted with a DMEM supplemented with 1% FBS, 25 mM HEPES, and 0.1 mM non-essential amino acids into 3.125×10^5 cells/ml. 32 μl of the diluted cells were added into 384-well plate (10^4 cells per well) and then incubated overnight. After the overnight culture, 8 μl of the medium having 1% of DMSO was added into the cell-free control well and the non-stimulating control well, respectively. 8 μl of the respective test compound dilutions (which had been prepared by diluting by 100-times with the medium as mentioned in the above) having 1% of DMSO were added to the respective remaining wells. After being cultured in the incubator for 5 hours, the wells of the 384-plate were treated with the substrate solution (8 μl per well) prepared according to the vendor's instruction (i.e., Invitrogen's instruction), and then incubated in the dark room for additional two hours. Agonistic activities on 5-HT4 receptor were evaluated, on the basis of fluorescence values of the cleavage-products by beta-lactamase. After exciting to 410 nm of wavelength using a fluorescence detector (Genios Pro), we measured the fluorescence values at two emission wavelengths (first wavelength: 465 nm, second wavelength: 535 nm). Data were analyzed on the basis of the ratio of fluorescence intensities of each well at the respective wavelengths. Each EC50 value was calculated by non-linear regression analysis using the “GraphPad Prism” program, based on the activities according to 8-different concentrations of the test compounds.
`CCCc1cc(N2CC[C@H](NCc3ccc(F)cc3)C2)nc(Nc2cccc(C#N)c2)n1` [Example 98, (S)-3-{4-[3-(4-fluorobenzylamino)pyrrolidin-1-yl]-6-propylpyrimidin-2-ylamino}benzonitrile]: it took 0.094 nM to reach a half-maximal effect (EC50).

The compound `CCCc1cc(N2CC[C@H](NCC3CC3)C2)nc(Nc2cccc(C#N)c2)n1` [Example 99, (S)-3-{4-[3-(cyclopropylmethylamino)pyrrolidin-1-yl]-6-propylpyrimidin-2-ylamino}benzonitrile] registered an EC50 of 0.0015 nM.

Take `CCCc1cc(N2CC[C@H](N(CC3CC3)CC3CC3)C2)nc(Nc2cccc(C#N)c2)n1` [Example 100, (S)-3-(4-{3-[bis (cyclopropylmethyl)amino]pyrrolidin-1-yl}-6-propylpyrimidin-2-ylamino)benzonitrile]: the EC50 amounted to 0.31 nM.

The compound `CCCc1cc(N2CC[C@H](NCc3cccnc3)C2)nc(Nc2cccc(C#N)c2)n1` [Example 102, (S)-3-{4-propyl-6-[3-(pyridin-3-ylmethylamino)pyrrolidin-1-yl]pyrimidin-2-ylamino}benzonitrile] returned an EC50 of 0.39 nM.

On to `CCCc1cc(N2CC[C@H](NCc3ccncc3)C2)nc(Nc2cccc(C#N)c2)n1` [Example 103, (S)-3-{4-propyl-6-[3-(pyridin-4-ylmethylamino)pyrrolidin-1-yl]pyrimidin-2-ylamino}benzonitrile], for which the EC50 worked out at 0.067 nM.

`CCCc1cc(N2CC[C@H](NCC(C)(C)C)C2)nc(Nc2cccc(C#N)c2)n1` [Example 105, (S)-3-{4-[3-(neopentylamino)pyrrolidin-1-yl]-6-propylpyrimidin-2-ylamino}benzonitrile]: the EC50 was 0.005 nM.

As for `CCCc1cc(N2CC[C@H](NCc3ccccc3F)C2)nc(Nc2cccc(C#N)c2)n1` [Example 106, (S)-3-{4-[3-(2-fluorobenzylamino)pyrrolidin-1-yl]-6-propylpyrimidin-2-ylamino}benzonitrile], a half-maximal response (EC50) required 0.13 nM.

As to `CCCc1cc(N2CC[C@H](NCc3cccc(C(F)(F)F)c3)C2)nc(Nc2cccc(C#N)c2)n1` [Example 107, (S)-3-(4-propyl-6-{3-[3-(trifluoromethyl)benzylamino]pyrrolidin-1-yl}pyrimidin-2-ylamino)benzonitrile], the EC50 was 0.42 nM.

Compound `CCCc1cc(N2CC[C@H](NCc3ccc(C(F)(F)F)cc3)C2)nc(Nc2cccc(C#N)c2)n1` [Example 108, (S)-3-(4-propyl-6-{3-[4-(trifluoromethyl)benzylamino]pyrrolidin-1-yl}pyrimidin-2-ylamino)benzonitrile] had an EC50 of 0.21 nM.

The compound `CCCc1cc(N2CC[C@H](NCc3ccc(OC(C)=O)cc3)C2)nc(Nc2cccc(C#N)c2)n1` [Example 109, (S)-4-({1-[2-(3-cyanophenylamino)-6-propylpyrimidin-4-yl]pyrrolidin-3-ylamino}methyl)phenylacetate] returned an EC50 of 0.012 nM. Compared with the last compound, the EC50 is about 18-fold lower.

With `CCCc1cc(N2CC[C@H](NCc3ccc(N(C)C)cc3)C2)nc(Nc2cccc(C#N)c2)n1` [Example 110, (S)-3-(4-{3-[4-(dimethylamino)benzylamino]pyrrolidin-1-yl}-6-propylpyrimidin-2-ylamino)benzonitrile], a half-maximal effect (EC50) was put at 0.018 nM.

The compound `CCCc1cc(N2CC[C@H](NCc3ccc[nH]3)C2)nc(Nc2cccc(C#N)c2)n1` [Example 111, (S)-3-(4-{3-[(1H-pyrrol-2-yl)methylamino]pyrrolidin-1-yl}-6-propylpyrimidin-2-ylamino)benzonitrile] returned an EC50 of 0.008 nM.

Take `CCCc1cc(N2CC[C@H](NCc3cccs3)C2)nc(Nc2cccc(C#N)c2)n1` [Example 112, (S)-3-{4-propyl-6-[3-(thiophen-2-ylmethylamino)pyrrolidin-1-yl]pyrimidin-2-ylamino}benzonitrile]: the EC50 was found to be 0.045 nM.

`CCCc1cc(N2CC[C@H](NCc3ccsc3)C2)nc(Nc2cccc(C#N)c2)n1` [Example 113, (S)-3-{4-propyl-6-[3-(thiophen-3-ylmethylamino)pyrrolidin-1-yl]pyrimidin-2-ylamino}benzonitrile]: the EC50 was found to be 0.016 nM.

For the compound `CCCCN[C@H]1CCN(c2cc(CCC)nc(Nc3cccc(C#N)c3)n2)C1` [Example 116, (S)-3-{4-[3-(butylamino)pyrrolidin-1-yl]-6-propylpyrimidin-2-ylamino}benzonitrile], a half-maximal response (EC50) required 0.0035 nM.

For `CCCc1cc(N2CC[C@H](NCCCSC)C2)nc(Nc2cccc(C#N)c2)n1` [Example 117, (S)-3-(4-{3-[3-(methylthio)propylamino]pyrrolidin-1-yl}-6-propylpyrimidin-2-ylamino)benzonitrile], the concentration for a half-maximal effect (EC50) was determined as 0.014 nM. Against the preceding compound, the EC50 is about 4-fold higher.

`CCCc1cc(N2CC[C@H](NC)C2)nc(Nc2ccc3cc[nH]c3c2)n1` [Example 121, (S)-N-{4-[3-(methylamino)pyrrolidin-1-yl]-6-propylpyrimidin-2-yl}-1H-indol-6-amine]: the EC50 is 0.005 nM.

In turn, `CCCc1cc(N2CC[C@H](NC)C2)nc(Nc2ccc(N)c(C(F)(F)F)c2)n1` [Example 123, (S)-N^1-{4-[3-(methylamino)pyrrolidin-1-yl]-6-propylpyrimidin-2-yl}-3-(trifluoromethyl)benzene-1,4-diamine dihydrochloride] had an EC50 of 0.0019 nM.

`CCCc1cc(N2CC[C@H](NS(C)(=O)=O)C2)nc(Nc2cccc(C#N)c2)n1` [Example 125, (S)-N-{1-[2-(3-cyanophenylamino)-6-propylpyrimidin-4-yl]pyrrolidin-3-yl}methanesulfonamide] came in with an EC50 of 0.159 nM.

Take `CCCc1cc(N2CC[C@H](NC(C)CC)C2)nc(Nc2cccc(C#N)c2)n1` (stereo partly drawn) [Example 127, 3-{4-[(3S)-3-(sec-butylamino)pyrrolidin-1-yl]-6-propylpyrimidin-2-ylamino}benzonitrile]: the concentration giving a half-maximal response (EC50) came out at 0.0062 nM. Compared with the last compound, the EC50 is about 26-fold lower.

In turn, `CCCc1cc(N2CC[C@H](NC(CC)CC)C2)nc(Nc2cccc(C#N)c2)n1` [Example 128, (S)-3-{4-[3-(pentan-3-ylamino)pyrrolidin-1-yl]-6-propylpyrimidin-2-ylamino}benzonitrile] showed an EC50 of 0.039 nM.

Turning to `CCCc1cc(N2CC[C@H](NC(CC(C)C)CC(C)C)C2)nc(Nc2cccc(C#N)c2)n1` [Example 129, (S)-3-{4-[3-(2,6-dimethylheptan-4-ylamino)pyrrolidin-1-yl]-6-propylpyrimidin-2-ylamino}benzonitrile], the EC50 stood at 0.323 nM. This EC50 lies about 8.3-fold higher than the previous one.

As to `CCCc1cc(N2CC[C@H](NC(C)C(C)(C)O)C2)nc(Nc2cccc(C#N)c2)n1` (stereo partly drawn) [Example 131, (S)-3-{4-[3-(3-hydroxy-3-methylbutan-2-ylamino)pyrrolidin-1-yl]-6-propylpyrimidin-2-ylamino}benzonitrile], it took 0.091 nM to reach a half-maximal effect (EC50).

On to `CCCCC(C)N[C@H]1CCN(c2cc(CCC)nc(Nc3cccc(C#N)c3)n2)C1` (stereo partly drawn) [Example 133, (S)-3-{4-[3-(n-hexan-2-ylamino)pyrrolidin-1-yl]-6-propylpyrimidin-2-ylamino}benzonitrile], for which the EC50 is 0.039 nM. This EC50 is about 2.3-fold lower than that of the compound before.

Compound `CCCc1cc(N2CC[C@H](NC(C)CCC(C)C)C2)nc(Nc2cccc(C#N)c2)n1` (stereo partly drawn) [Example 134, (S)-3-{4-[3-(5-methylhexan-2-ylamino)pyrrolidin-1-yl]-6-propylpyrimidin-2-ylamino}benzonitrile] returned an EC50 of 0.214 nM. This EC50 lies about 5.5-fold higher than the previous one.

Compound `CCCc1cc(N2CC[C@H](NC3CCCCC3)C2)nc(Nc2cccc(C#N)c2)n1` [Example 135, (S)-3-{4-[3-(cyclohexylamino)pyrrolidin-1-yl]-6-propylpyrimidin-2-ylamino}benzonitrile] had an EC50 of 0.011 nM.

For the compound `CCCc1cc(N2CC[C@H](NCCNC(=O)OC(C)(C)C)C2)nc(Nc2cccc(C#N)c2)n1` [Example 136, (S)-tert-butyl 2-{1-[2-(3-cyanophenylamino)-6-propylpyrimidin-4-yl]pyrrolidin-3-ylamino}ethylcarbamate], the EC50 worked out at 0.045 nM.

As for `CCCc1cc(N2CC[C@H](NC3CCN(Cc4ccccc4)CC3)C2)nc(Nc2cccc(C#N)c2)n1` [Example 137, (S)-3-{4-[3-(1-benzylpiperidin-4-ylamino)pyrrolidin-1-yl]-6-propylpyrimidin-2-ylamino}benzonitrile], the midpoint of the response, the EC50, lay at 0.072 nM.

The compound `CCCc1cc(N2CC[C@H](NC(C)C)C2)nc(Nc2cccc(C#N)c2)n1` [Example 138, (S)-3-{4-[3-(isopropylamino)pyrrolidin-1-yl]-6-propylpyrimidin-2-ylamino}benzonitrile] came in with an EC50 of 0.012 nM.

In turn, `CCCc1cc(N2CC[C@H](NC3CCN(C(=O)c4ccccc4)CC3)C2)nc(Nc2cccc(C#N)c2)n1` [Example 139, (S)-3-{4-[3-(1-benzoylpiperidin-4-ylamino)pyrrolidin-1-yl]-6-propylpyrimidin-2-ylamino}benzonitrile] showed an EC50 of 0.034 nM.

What is called EC50 is the concentration that produces a half-maximal response. The low end stands for higher potency in that assay, the high end for lower potency in that assay.

The values above are taken from patent US9890138B2, “Diaminopyrimidine derivatives and processes for the preparation thereof” (YUHAN CORPORATION, priority 2011, dated 2018).
